Measured values published in PMC7155171, “Probing the Open Global Health Chemical Diversity Library for Multistage-Active Starting Points for Next-Generation Antimalarials” (ACS Infectious Diseases, 2020).
Read-outs that look alike come from different tables or passages of the source.

How the values were obtained:
[1] = tested on: P. falciparum Dd2; assay: SYBR green I asexual blood stage proliferation assay (96 h); type: cell-based, Plasmodium falciparum; settings: for IC50 / Emax: Plasmodium falciparum
[2] = tested on: P. falciparum Dd2 (PfLuc) line expressing firefly luciferase, asexual blood stage; assay: microbe, parasite or virus in culture; type: cell-based, Plasmodium falciparum; settings: Plasmodium falciparum
[3] = DD2, Sybr Green I, 11-pt dose response, 96hr, read-out: CDD P. falciparum Sybr Green I ABS 11-pt Reconfirmation Dose Response (96hr): IC50
[4] = DD2, Sybr Green I, 11-pt dose response, 96hr, read-out: CDD P. falciparum Sybr Green I ABS 11-pt Reconfirmation Dose Response (96hr): Maximum inhibition (%)
[5] = DD2, read-out: CDD P. falciparum Luciferase ABS 11-pt Reconfirmation Dose Response (48hr): IC50 (μM), 11-pt dose response, 48hr
[6] = DD2, 8-pt dose response, 96hr, read-out: CDD P. falciparum Luciferase ABS 8-pt Reconfirmation Dose Response (96hr): IC50
[7] = DD2, 8-pt dose response, 96hr, read-out: CDD P. falciparum Luciferase ABS 8-pt Reconfirmation Dose Response (96hr): Maximum inhibition (%)
[8] = DD2, 11-pt dose response, 48hr, read-out: CDD P. falciparum Luciferase ABS 11-pt Reconfirmation Dose Response (48hr): Maximum inhibition (%)
[9] = DD2, 11-pt dose response, 96hr, read-out: CDD P. falciparum Luciferase ABS 11-pt Reconfirmation Dose Response (96hr): IC50
[10] = DD2, 11-pt dose response, 96hr, read-out: CDD P. falciparum Luciferase ABS 11-pt Reconfirmation Dose Response (96hr): Maximum inhibition (%)
[11] = DD2, 11-pt dose response, 96hr, read-out: P. falciparum Sybr Green I ABS 11-pt Reconfirmation Dose Response (96hr): IC50
[12] = DD2, 11-pt dose response, 96hr, read-out: P. falciparum Sybr Green I ABS 11-pt Reconfirmation Dose Response (96hr): Maximum inhibition (%)
[13] = DD2, read-out: P. falciparum Luciferase ABS 11-pt Reconfirmation Dose Response (48hr): IC50, 11-pt dose response, 48hr
[14] = DD2, 8-pt dose response, 96hr, read-out: P. falciparum Luciferase ABS 8-pt Reconfirmation Dose Response (96hr): IC50
[15] = DD2, 8-pt dose response, 96hr, read-out: P. falciparum Luciferase ABS 8-pt Reconfirmation Dose Response (96hr): Maximum inhibition (%)
[16] = DD2, 11-pt dose response, 48hr, read-out: P. falciparum Luciferase ABS 11-pt Reconfirmation Dose Response (48hr): Maximum inhibition (%)
[17] = DD2, 11-pt dose response, 96hr, read-out: P. falciparum Luciferase ABS 11-pt Reconfirmation Dose Response (96hr): IC50
[18] = DD2, 11-pt dose response, 96hr, read-out: P. falciparum Luciferase ABS 11-pt Reconfirmation Dose Response (96hr): Maximum inhibition (%)

Compound | IC50 [1, 3] [nM] | Emax [1, 4] [%] | IC50 [2, 5] [µM] | IC50 [2, 6] [µM] | Emax [2, 7] [%] | Emax [2, 8] [%] | IC50 [2, 9] [µM] | Emax [2, 10] [%] | further results
Cc1cc(-n2cccn2)ccc1CN1CCOCC(CN(C)C)C1 (centres unmarked) [DDD01247138] | > 4160 | 60.8 | > 12.5 | 0.9 | 83 | 48 | 5.64 | 81.9 | 
CC(C)CN1CCCC1c1ccc(C(=O)Nc2cccnc2)s1 (centres unmarked) [DDD01247321] | 4770 | 91.6 | 4.09 | 0.77 | 91.9 | 94.3 | 2.12 | 99.9 | 
CCN(CC)CCN(C)c1nc(-c2ccc(Cl)cc2)nc2c1CNC2 [DDD01247796] |  |  |  |  |  |  |  |  | IC50 [1, 11]: 4270 nM; Emax [1, 12]: 89.9%; IC50 [2, 13]: 3.45 µM; IC50 [2, 14]: 1.5 µM; Emax [2, 15]: 94.9%; Emax [2, 16]: 74.2%; IC50 [2, 17]: 2.79 µM; Emax [2, 18]: 99.3%
COc1cccc(CN(C)Cc2[nH]c3ccccc3c2C)c1O [DDD01247848] | 1050 | 98 | 1.95 | 0.44 | 94.4 | 95.9 | 0.908 | 98.6 | 
Cc1cccnc1[C@H](C)Nc1nc(-c2cccnc2)nc2c1CNC2 [DDD01248607] |  |  |  |  |  |  |  |  | IC50 [1, 11]: 3910 nM; Emax [1, 12]: 91.2%; IC50 [2, 13]: 1.59 µM; IC50 [2, 14]: 1.6 µM; Emax [2, 15]: 92.2%; Emax [2, 16]: 79.2%; IC50 [2, 17]: 1.37 µM; Emax [2, 18]: 99.4%
NC1(C(=O)NCC2CCCN(Cc3ccccc3F)C2)CCCC1 (centres unmarked) [DDD01249015] | > 4160 | 77.3 | > 12.5 | 0.62 | 89.1 | 55.5 | 1.47 | 87.8 | 
c1ccc(Oc2nccc3occc23)c(CN2CCCCC2)c1 [DDD01249169] | 7190 | 73.8 | > 12.5 | 0.69 | 87.1 | 34.1 | 1.52 | 78.9 | 
CC(C)[C@@H]1CN(C(=O)C2(c3ccccc3)CCN(C)CC2)C[C@H]1N(C)C [DDD01249452] | 3270 | 87.8 | 6.23 | 0.83 | 90.5 |  | 2.18 | 95.6 | 
CCc1ccc(CN(CCN(C)C)Cc2ccc(C)s2)nc1 [DDD01249772] |  |  |  |  |  |  |  |  | IC50 [1, 11]: 3000 nM; Emax [1, 12]: 93.4%; IC50 [2, 13]: 1.02 µM; IC50 [2, 14]: 1.2 µM; Emax [2, 15]: 90.5%; Emax [2, 16]: 95.2%; IC50 [2, 17]: 0.278 µM; Emax [2, 18]: 101%
CC(C)c1nccc(C2(c3ccccc3Cl)CCNCC2)n1 [DDD01250092] | 5400 | 74.3 | 3.82 | 1.08 | 86.6 | 58.4 | 1.95 | 90.3 | 
Cc1cccc2[nH]c(-c3cn(C4CCNCC4)nn3)nc12 [DDD01250141] | 1480 | 72.3 | 3.07 | 0.59 | 94.4 | 66.5 | 2.16 | 97.2 | 
O=C(c1scc2c1OCCO2)N1CCOC(CCc2ccccc2)C1 (centres unmarked) [DDD01250278] | 1470 | 101 | 1.39 | 0.55 | 93.1 | 97.2 | 0.767 | 100 | 
CCCn1ccnc1CN1CCCC1c1ccccn1 (centres unmarked) [DDD01250556] | 11900 | 68.5 | 4.66 | 0.46 |  | 53.8 | 1.47 | 94.8 | 
Cc1cc2nc(-c3cn(C4CCNCC4)nn3)[nH]c2cc1C [DDD01250700] | 3230 | 82 | 2.08 | 0.34 | 95.8 | 61.5 | 1.01 | 98.7 | 
CC(C)(C)CNCC1(O)CCCN(Cc2ccccc2F)C1=O (centres unmarked) [DDD01250810] | 4310 | 64.2 | > 12.5 | 1.09 | 82.3 | 55.3 | 5.69 | 80.8 | 
CCCn1nccc1C(=O)N1CCN(C2CCc3ccccc3C2)CC1 (centres unmarked) [DDD01251134, CCCn1nccc1C(=O)N1CCN(CC1)C1CCc2ccccc2C1] |  |  |  |  |  |  |  |  | CDD P. falciparum Sybr Green I ABS Dd2 Dose Response: Maximum measured (%) ([1]; Dd2, 96 h): 56.3%; IC50 ([1]; DD2, 96 h, read-out: CDD P. falciparum Sybr Green I ABS Dd2 Dose Response: IC50): > 12500 nM; IC50 ([2]; DD2, read-out: CDD P. falciparum Luc 11pt dose response (96hr, n=2): IC50 (μM), 96hr, 11-point, n=2): 0.224 µM; IC50 ([2]; DD2, read-out: CDD P. falciparum Luciferase 11pt dose response (48hr, n=2): IC50 (μM), 48hr, 11-point, n=2): 0.205 µM; Emax ([2]; DD2, 48hr, 11-point, read-out: CDD P. falciparum Luciferase ABS 11-pt Reconfirmation Dose Response (48hr): Maximum inhibition (%)): 95.3%; Emax ([2]; DD2, 96hr, 11-point, read-out: CDD P. falciparum Luciferase ABS 11-pt Reconfirmation Dose Response (96hr): Maximum inhibition (%)): 100%
Fc1ccccc1C1(CNC2CCOC3(CCOCC3)C2)CCCC1 (centres unmarked) [DDD01251139] | 587 | 71.8 | 8.87 | 0.96 | 86.2 | 69.5 | 1.43 | 89.3 | 
Cc1nc(-c2cc(Cl)cc3c2OC(CN)C3)c[nH]1 (centres unmarked) [DDD01251343] | > 1390 |  | > 12.5 | 0.67 |  | -0.28 | 3.7 | 84.3 | 
Cc1nc(C2CCNCC2)cc(N(C)Cc2cc3cc(F)ccc3[nH]2)n1 [DDD01251474] | 3200 | 90.9 | 2.3 | 0.99 | 93.3 | 98.2 | 0.415 | 100 | 
